{
  "source": "patent US11572590B2",
  "about": "“Methods for evaluating tumor cell spheroids using 3D microfluidic cell culture device” (Dana-Farber Cancer Institute, Inc., priority 2017, dated 2023)",
  "assay_in_all_cases": "SelectScreen Kinase Profiling, single point inhibition and IC50 for off-target kinases",
  "assay_type_in_all_cases": "biochemical",
  "key": {"off-target kinases [1]": {"target": "off-target kinases (Homo sapiens, UniProt P51812)", "sequence (P51812 whole entry)": "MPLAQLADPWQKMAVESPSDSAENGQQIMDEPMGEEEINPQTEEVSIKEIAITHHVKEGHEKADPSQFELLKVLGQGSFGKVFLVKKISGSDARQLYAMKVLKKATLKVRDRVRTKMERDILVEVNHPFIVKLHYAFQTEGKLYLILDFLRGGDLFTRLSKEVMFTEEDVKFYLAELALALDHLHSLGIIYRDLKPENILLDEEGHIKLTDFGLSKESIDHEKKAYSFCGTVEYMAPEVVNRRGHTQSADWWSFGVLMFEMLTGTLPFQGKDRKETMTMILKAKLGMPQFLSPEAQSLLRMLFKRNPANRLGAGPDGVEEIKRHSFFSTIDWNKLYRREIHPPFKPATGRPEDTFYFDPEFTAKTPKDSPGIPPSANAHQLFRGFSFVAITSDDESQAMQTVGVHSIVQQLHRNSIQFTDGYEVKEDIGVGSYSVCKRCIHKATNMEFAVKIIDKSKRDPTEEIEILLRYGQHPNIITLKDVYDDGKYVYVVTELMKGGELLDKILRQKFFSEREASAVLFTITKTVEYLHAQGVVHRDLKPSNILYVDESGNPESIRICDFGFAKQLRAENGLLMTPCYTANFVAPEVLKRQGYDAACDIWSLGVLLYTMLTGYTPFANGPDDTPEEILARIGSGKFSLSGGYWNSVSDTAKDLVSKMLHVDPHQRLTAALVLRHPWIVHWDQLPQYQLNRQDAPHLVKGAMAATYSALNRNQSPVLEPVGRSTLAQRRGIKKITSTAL", "conditions": "RPS6KA3 (RSK2), ZLYTE, ATP Km app"}, "off-target kinases [2]": {"target": "off-target kinases (Homo sapiens, UniProt P78362)", "sequence (P78362 whole entry)": "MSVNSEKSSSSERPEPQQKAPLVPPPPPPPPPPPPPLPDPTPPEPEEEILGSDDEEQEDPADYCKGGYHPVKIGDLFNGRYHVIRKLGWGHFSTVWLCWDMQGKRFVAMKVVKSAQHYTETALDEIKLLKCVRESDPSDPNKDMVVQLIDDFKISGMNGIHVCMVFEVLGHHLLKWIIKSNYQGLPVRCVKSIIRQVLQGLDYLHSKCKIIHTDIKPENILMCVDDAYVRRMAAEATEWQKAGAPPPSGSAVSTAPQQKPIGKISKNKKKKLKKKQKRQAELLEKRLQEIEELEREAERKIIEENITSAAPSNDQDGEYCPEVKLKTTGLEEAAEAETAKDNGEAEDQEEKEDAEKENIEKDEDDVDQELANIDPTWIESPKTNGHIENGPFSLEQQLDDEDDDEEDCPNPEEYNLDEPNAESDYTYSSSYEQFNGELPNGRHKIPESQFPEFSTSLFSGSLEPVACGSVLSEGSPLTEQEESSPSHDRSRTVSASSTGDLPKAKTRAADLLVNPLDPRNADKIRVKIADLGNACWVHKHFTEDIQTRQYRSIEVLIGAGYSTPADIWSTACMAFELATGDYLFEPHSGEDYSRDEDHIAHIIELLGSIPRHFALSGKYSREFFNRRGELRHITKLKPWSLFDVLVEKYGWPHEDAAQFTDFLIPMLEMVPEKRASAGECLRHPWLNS", "conditions": "SRPK2; Cmpd1 1000 μM; ATP Km app; ZLYTE"}, "off-target kinases [3]": {"target": "off-target kinases (Homo sapiens, UniProt Q9NQU5)", "sequence (Q9NQU5 whole entry)": "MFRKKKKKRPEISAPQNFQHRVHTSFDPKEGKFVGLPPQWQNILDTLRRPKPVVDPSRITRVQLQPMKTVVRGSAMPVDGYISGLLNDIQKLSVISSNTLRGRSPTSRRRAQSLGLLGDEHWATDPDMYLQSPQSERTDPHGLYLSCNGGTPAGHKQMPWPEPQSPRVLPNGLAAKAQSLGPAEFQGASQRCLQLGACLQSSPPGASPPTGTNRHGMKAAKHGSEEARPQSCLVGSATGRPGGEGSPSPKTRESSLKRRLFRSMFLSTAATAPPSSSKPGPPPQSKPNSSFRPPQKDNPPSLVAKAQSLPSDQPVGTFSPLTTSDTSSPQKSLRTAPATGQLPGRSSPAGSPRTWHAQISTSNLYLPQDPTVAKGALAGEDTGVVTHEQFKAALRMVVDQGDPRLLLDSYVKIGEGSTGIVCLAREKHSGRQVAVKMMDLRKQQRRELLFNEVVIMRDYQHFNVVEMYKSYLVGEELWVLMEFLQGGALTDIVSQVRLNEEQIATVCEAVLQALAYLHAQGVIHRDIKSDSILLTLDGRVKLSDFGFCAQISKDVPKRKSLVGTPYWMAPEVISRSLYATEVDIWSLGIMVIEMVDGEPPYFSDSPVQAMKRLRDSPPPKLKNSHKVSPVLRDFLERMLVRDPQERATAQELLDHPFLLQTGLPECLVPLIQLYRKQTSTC", "conditions": "PAK6, ZLYTE, ATP Km app"}, "off-target kinases [4]": {"target": "off-target kinases (Homo sapiens, UniProt P27448)", "sequence (P27448 whole entry)": "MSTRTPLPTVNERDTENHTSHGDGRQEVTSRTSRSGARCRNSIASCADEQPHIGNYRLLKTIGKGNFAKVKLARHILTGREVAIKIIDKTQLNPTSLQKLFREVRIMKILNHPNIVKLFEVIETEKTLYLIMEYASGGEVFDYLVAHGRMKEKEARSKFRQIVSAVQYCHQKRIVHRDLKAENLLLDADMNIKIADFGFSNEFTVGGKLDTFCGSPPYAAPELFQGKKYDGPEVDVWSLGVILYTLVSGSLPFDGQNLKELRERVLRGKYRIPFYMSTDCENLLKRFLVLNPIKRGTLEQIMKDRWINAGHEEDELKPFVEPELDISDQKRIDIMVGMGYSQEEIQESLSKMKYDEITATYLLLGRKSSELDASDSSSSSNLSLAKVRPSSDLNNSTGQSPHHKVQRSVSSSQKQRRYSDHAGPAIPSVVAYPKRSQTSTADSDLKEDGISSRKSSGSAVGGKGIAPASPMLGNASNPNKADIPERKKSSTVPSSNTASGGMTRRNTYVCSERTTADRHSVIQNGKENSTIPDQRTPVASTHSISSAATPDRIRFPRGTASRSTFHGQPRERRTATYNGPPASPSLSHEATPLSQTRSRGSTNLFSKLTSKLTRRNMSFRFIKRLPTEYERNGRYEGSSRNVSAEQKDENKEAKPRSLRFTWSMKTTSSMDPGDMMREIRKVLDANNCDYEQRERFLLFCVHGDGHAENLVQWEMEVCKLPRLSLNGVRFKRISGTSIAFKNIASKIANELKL", "conditions": "MARK3, ATP Km app, ZLYTE"}, "off-target kinases [5]": {"target": "off-target kinases (Homo sapiens, UniProt Q9NY57)", "sequence (Q9NY57 whole entry)": "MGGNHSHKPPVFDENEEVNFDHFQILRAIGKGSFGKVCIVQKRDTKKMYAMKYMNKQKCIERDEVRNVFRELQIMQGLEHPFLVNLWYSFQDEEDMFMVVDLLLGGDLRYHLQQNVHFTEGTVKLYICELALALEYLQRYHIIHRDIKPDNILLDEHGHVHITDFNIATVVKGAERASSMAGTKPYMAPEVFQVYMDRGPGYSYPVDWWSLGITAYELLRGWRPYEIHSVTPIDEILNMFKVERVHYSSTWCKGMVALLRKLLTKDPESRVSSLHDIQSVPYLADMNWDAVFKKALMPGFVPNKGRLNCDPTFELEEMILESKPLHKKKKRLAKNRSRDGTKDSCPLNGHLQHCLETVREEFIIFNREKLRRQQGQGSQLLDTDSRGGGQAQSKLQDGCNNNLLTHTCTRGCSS", "conditions": "STK32B (YANK2), LanthaScreen Binding"}, "off-target kinases [6]": {"target": "T1, off-target kinases (Homo sapiens, UniProt P51817)", "T1 sequence (P51817 1-358)": "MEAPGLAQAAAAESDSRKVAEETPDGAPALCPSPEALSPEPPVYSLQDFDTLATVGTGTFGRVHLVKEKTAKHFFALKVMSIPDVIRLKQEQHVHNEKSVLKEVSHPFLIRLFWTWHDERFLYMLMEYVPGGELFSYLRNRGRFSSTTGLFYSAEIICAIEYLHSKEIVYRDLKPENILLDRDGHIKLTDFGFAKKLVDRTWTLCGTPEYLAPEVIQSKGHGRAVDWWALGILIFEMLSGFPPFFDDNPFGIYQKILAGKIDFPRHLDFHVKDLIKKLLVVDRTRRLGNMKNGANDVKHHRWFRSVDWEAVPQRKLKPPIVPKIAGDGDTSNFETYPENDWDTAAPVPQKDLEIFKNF", "conditions": "PRKX, ZLYTE, ATP Km app"}},
  "note": "Where two headings read alike, the source gives them in different places.",
  "data": [
    {"smiles": "N#Cc1cc(-c2ncnc(Nc3ccc(N4CCN(C5COC5)CC4)cc3)n2)ccc1OC1CCOCC1", "note": "[Compound 1, 5-(4-((4-(4-(oxetan-3-yl)piperazin-1-yl)phenyl)amino)-1,3,5-triazin-2-yl)-2-((tetrahydro-2H-pyran-4-yl)oxy)benzonitrile]", "values": [
      {"measurement": "inhibition", "setting": "off-target kinases [1]; read-out: % Inhibition 1", "result": 17, "unit": "%"},
      {"measurement": "inhibition", "setting": "off-target kinases [1]; read-out: % Inhibition 2", "result": 10, "unit": "%"},
      {"measurement": "inhibition", "setting": "off-target kinases [1]; read-out: % Inhibition Avg", "result": 14, "unit": "%"},
      {"measurement": "% Inhibition 1", "setting": "off-target kinases [2]", "result": "−2", "unit": "%"},
      {"measurement": "% Inhibition 2", "setting": "off-target kinases [2]", "result": "−4", "unit": "%"},
      {"measurement": "% Inhibition Avg", "setting": "off-target kinases [2]", "result": "−3", "unit": "%"},
      {"measurement": "inhibition", "setting": "off-target kinases [3]; read-out: % Inhibition 1", "result": 9, "unit": "%"},
      {"measurement": "inhibition", "setting": "off-target kinases [3]; read-out: % Inhibition 2", "result": 4, "unit": "%"},
      {"measurement": "inhibition", "setting": "off-target kinases [3]; read-out: % Inhibition Avg", "result": 6, "unit": "%"},
      {"measurement": "inhibition", "setting": "off-target kinases [4]; read-out: % Inhibition 1", "result": 98, "unit": "%"},
      {"measurement": "inhibition", "setting": "off-target kinases [4]; read-out: % Inhibition 2", "result": 94, "unit": "%"},
      {"measurement": "inhibition", "setting": "off-target kinases [4]; read-out: % Inhibition Avg", "result": 96, "unit": "%"},
      {"measurement": "inhibition", "setting": "off-target kinases [5]; read-out: % Inhibition 1", "result": 1, "unit": "%"},
      {"measurement": "inhibition", "setting": "off-target kinases [5]; read-out: % Inhibition 2", "result": 8, "unit": "%"},
      {"measurement": "inhibition", "setting": "off-target kinases [5]; read-out: % Inhibition Avg", "result": 5, "unit": "%"},
      {"measurement": "inhibition", "setting": "off-target kinases [6]; read-out: % Inhibition 1", "result": 22, "unit": "%"},
      {"measurement": "inhibition", "setting": "off-target kinases [6]; read-out: % Inhibition 2", "result": 30, "unit": "%"},
      {"measurement": "inhibition", "setting": "off-target kinases [6]; read-out: % Inhibition Avg", "result": 26, "unit": "%"}
    ]}
  ]
}
